Values quoted from earlier work as cited in PMC7096398, “Oxytocin Receptors Regulate Social Preference in Zebrafish” (Scientific Reports, 2020).

System: zebrafish
Parameters: method as in 4 sources, ref 42 = [42]; PMID 21956239; doi:10.1007/s00213-011-2482-2; 42. Braida D Neurohypophyseal hormones manipulation modulate social and anxiety-related behavior in zebrafish Psychopharmacology (Berl) 2012 220 319 330 10.1007/s00213-011-2482-2 21956239 ||| ref 44 = [44]; PMID 27247142; doi:10.1016/j.bbr.2016.05.059; 44. Zimmermann FF Gaspary KV Siebel AM Bonan CD Oxytocin reversed MK-801-induced social interaction and aggression deficits in zebrafish Behav Brain Res 2016 311 368 374 10.1016/j.bbr.2016.05.059 2724 ||| ref 51 = [51]; doi:10.1163/1568539x-00003261; 51. Lindeyer CM Langen EMA Swaney WT Reader SM Nonapeptide influences on social behaviour: effects of vasotocin and isotocin on shoaling and interaction in zebrafish Behaviour 2015 152 897 915 10.1163 ||| ref 27 = [27]; PMID 26347614; doi:10.3389/fncir.2015.00039; 27. Dreosti E Lopes G Kampff AR Wilson SW Development of social behavior in young zebrafish Front Neural Circuits 2015 9 39 10.3389/fncir.2015.00039 26347614 PMC4539524
Details: cited from earlier work
From the text: Thus far, dopamine[56] and serotonin[57] in the mesolimbic system and excitation-inhibition balance[58] seem to play a prominent role in social investigation in rodents. Similarly, levels of dopamine and serotonin are modulated in socially interacting fish[59]–[61] and social preference behaviour decreases after treatment with a dopamine D1 receptor antagonist. […] In rodents, release of ... || (+ 1 further places)

In the case of `Cc1ccccc1N1CCN(S(=O)(=O)C[C@]23CC[C@H](C[C@@H]2NC(=O)[C@@H](N)CCS(C)(=O)=O)C3(C)C)CC1` [L-368,899], the “Social preference, compound by itself” value (adult zebrafish) is listed as “did not decrease social preference” and the “Social deficits following MK-801 exposure” value (zebrafish exposed to glutamate antagonist MK-801) is listed as “did not reverse those deficits”.
